Assay results taken from paper PMC3919520 (Bioorganic & medicinal chemistry, 2013).
Entries after “also recorded” stand apart in the source; their conditions may differ.

Tests used:
BoNT/A = BoNT/A (Clostridium botulinum, UniProt P0DPI1); type: cell-based, C. botulinum
BoNT/A, sequence (P0DPI1 2-448 limits assumed): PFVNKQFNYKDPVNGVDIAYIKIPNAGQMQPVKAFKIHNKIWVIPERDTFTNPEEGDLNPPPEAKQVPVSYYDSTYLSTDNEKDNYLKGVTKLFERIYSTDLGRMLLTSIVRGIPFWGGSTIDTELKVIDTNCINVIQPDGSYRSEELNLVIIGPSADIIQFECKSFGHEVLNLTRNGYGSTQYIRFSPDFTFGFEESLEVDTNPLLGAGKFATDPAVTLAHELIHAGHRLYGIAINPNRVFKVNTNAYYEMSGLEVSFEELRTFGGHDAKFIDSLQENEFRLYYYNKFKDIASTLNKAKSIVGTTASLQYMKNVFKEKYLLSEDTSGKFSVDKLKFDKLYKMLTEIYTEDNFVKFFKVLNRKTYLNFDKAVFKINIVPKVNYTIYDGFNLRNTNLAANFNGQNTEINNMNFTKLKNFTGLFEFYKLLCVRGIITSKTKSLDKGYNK

SMILES	Inhibition / protection of SNAP-25 from the neurotoxin (result in words) (BoNT/A)	Cytotoxicity (hiPSC-derived neurons; at 150 µM)	Inhibition (BoNT/A)	Cytotoxicity (result in words) (hiPSC-derived neurons)
O=C(/C=C/c1ccc(Cl)cc1Cl)NOC(=O)NCc1ccccc1 [compound 1, (E)-N-((benzylcarbamoyl)oxy)-3-(2,4-dichlorophenyl)acrylamide]	ineffective inhibitors	cytotoxic at 150 µM ^a		
O=C(CC(CCO)c1ccc(Cl)cc1Cl)NOC(=O)NCc1ccccc1 (centres unmarked) [compound 2, N-((benzylcarbamoyl)oxy)-3-(2,4-dichlorophenyl)-5-hydroxypentanamide]	ineffective inhibitors		no inhibition; also recorded: partial inhibition at 300 µM	did not show cytotoxicity
